{"source": "patent US9981942B2", "about": "“Piperidine derivatives having multimodal activity against pain” (LABORATORIOS DEL DR. ESTEVE S.A., priority 2013, dated 2018)"}
{"tested_on": "σ1 receptor and the μ-opiod receptor", "test": "μ and σ1 dual binding: combined class from the Ki of both radioligand assays", "set-up": "species or system human; key to μ and σ1 dual binding: +: Both Ki-μ and Ki-σ1>=500 nM; ++: One Ki<500 nM while the other Ki is >=500 nM; +++: Both Ki-μ and Ki-σ1<500 nM; ++++: Both Ki-μ and Ki-σ1<100 nM", "conditions": "combined class for Ki-μ and Ki-σ1; transfected HEK-293 membranes (σ1), transfected CHO-K1 cell membranes (μ)", "method": "(§1) To investigate binding properties of σ1 receptor ligands to human σ1 receptor, transfected HEK-293 membranes and [^3H](+)-pentazocine (Perkin Elmer, NET-1056), as the radioligand, were used. The assay was carried out with 7 μg of membrane suspension, 5 nM of [^3H](+)-pentazocine in either absence or presence of either buffer or 10 μM Haloperidol for total and non-specific binding, respectively. Binding buffer contained Tris-HCl 50 mM at pH 8. Plates were incubated at 37° C. for 120 minutes. After the incubation period, the reaction mix was then transferred to MultiScreen HTS, FC plates (Millipore), filtered and plates were washed 3 times with ice-cold 10 mM Tris-HCL (pH7.4). Filters were dried and counted at approximately 40% efficiency in a MicroBeta scintillation counter (Perkin-Elmer) using EcoScint liquid scintillation cocktail\n(§2) To investigate binding properties of mu-opioid receptor ligands to human μ-opioid receptor, transfected CHO-K1 cell membranes and [^3H]-DAMGO (Perkin Elmer, ES-542-C), as the radioligand, were used. The assay was carried out with 20 μg of membrane suspension, 1 nM of [^3H]-DAMGO in either absence or presence of either buffer or 10 μM Naloxone for total and non-specific binding, respectively. Binding buffer contained Tris-HCl 50 mM, MgCl2 5 mM at pH 7.4. Plates were incubated at 27° C. for 60 minutes. After the incubation period, the reaction mix was then transferred to MultiScreen HTS, FC plates (Millipore), filtered and plates were washed 3 times with ice-cold 10 mM Tris-HCL (pH 7.4). Filters were dried and counted at approximately 40% efficiency in a MicroBeta scintillation counter (Perkin-Elmer) using EcoScint liquid scintillation cocktail.\n(§3) The following scale as been adopted for representing the binding to the σ1 receptor and the μ-opiod receptor expressed as Ki: • + Both Ki-μ and Ki-σ1>=500 nM • ++ One Ki<500 nM while the other Ki is >=500 nM • +++ Both Ki-μ and Ki-σ1<500 nM • ++++ Both Ki-μ and Ki-σ1<100 nM"}
{"smiles": "Cc1cccc(Cn2cc(CN3CCC(c4cccc(NS(=O)(=O)C(C)C)c4)CC3)nn2)n1", "note": "[Example 118, N-(3-(1-((1-((6-methylpyridin-2-yl)methyl)-1H-1,2,3-triazol-4-yl)methyl)piperidin-4-yl)phenyl)propane-2-sulfonamide]", "μ and σ1 dual binding": "++"}
{"smiles": "Oc1ccc(-n2cc(CN3CCC(c4cccc(O)c4)CC3)nn2)nc1", "note": "[Example 220, 6-(4-((4-(3-hydroxyphenyl)piperidin-1-yl)methyl)-1H-1,2,3-triazol-1-yl)pyridin-3-ol]", "μ and σ1 dual binding": "++"}
{"smiles": "CCC(=O)Nc1cccc(C2CCN(Cc3cn(Cc4ccccc4)nn3)CC2)n1", "note": "[Example 199, N-(6-(1-((1-benzyl-1H-1,2,3-triazol-4-yl)methyl)piperidin-4-yl)pyridin-2-yl)propionamide]", "μ and σ1 dual binding": "++"}
{"smiles": "CC(C)(O)COc1ccc(-n2cc(CN3CCC(c4cccc(O)c4)CC3)nn2)cc1", "note": "[Example 106, 3-(1-((1-(4-(2-hydroxy-2-methylpropoxy)phenyl)-1H-1,2,3-triazol-4-yl)methyl)piperidin-4-yl)phenol]", "μ and σ1 dual binding": "++"}
{"smiles": "c1ccc(Cn2cc(CN3CCC(c4cccc(Nc5ccccn5)c4)CC3)nn2)nc1", "note": "[Example 231, N-(3-(1-((1-(pyridin-2-ylmethyl)-1H-1,2,3-triazol-4-yl)methyl)piperidin-4-yl)phenyl)pyridin-2-amine]", "μ and σ1 dual binding": "++"}
{"smiles": "CC(C)S(=O)(=O)Nc1cccc(C2CCN(Cc3cn(C(CO)c4ccccc4)nn3)CC2)c1", "note": "(stereo not shown) [Example 130, N-(3-(1-((1-(2-hydroxy-1-phenylethyl)-1H-1,2,3-triazol-4-yl)methyl)piperidin-4-yl)phenyl)propane-2-sulfonamide]", "μ and σ1 dual binding": "++"}
{"smiles": "CC1(n2cc(CN3CCC(c4cccc(O)c4)CC3)nn2)C(=O)Nc2ccccc21", "note": "(stereo not shown) [Example 95, 3-(4-((4-(3-hydroxyphenyl)piperidin-1-yl)methyl)-1H-1,2,3-triazol-1-yl)-3-methylindolin-2-one]", "μ and σ1 dual binding": "++"}
{"smiles": "CS(=O)(=O)Nc1cccc(C2CCN(Cc3cn([C@H]4c5ccccc5C[C@@H]4O)nn3)CC2)c1", "note": "[Example 91, N-(3-(1-((1-((1S,2S)-2-hydroxy-2,3-dihydro-1H-inden-1-yl)-1H-1,2,3-triazol-4-yl)methyl)piperidin-4-yl)phenyl)methanesulfonamide]", "μ and σ1 dual binding": "++"}
{"smiles": "CC(C)S(=O)(=O)Nc1cccc(C2CCN(Cc3cncn3Cc3ccccn3)CC2)c1", "note": "[Example 187, N-(3-(1-((1-(pyridin-2-ylmethyl)-1H-imidazol-5-yl)methyl)piperidin-4-yl)phenyl)propane-2-sulfonamide]", "μ and σ1 dual binding": "++"}
{"target": "σ1 receptor and the μ-opiod receptor", "test": "μ and σ1 dual binding: combined class from the Ki of both radioligand assays", "set-up": "species or system human; key to μ and σ1 dual binding: +: Both Ki-μ and Ki-σ1>=500 nM; ++: One Ki<500 nM while the other Ki is >=500 nM; +++: Both Ki-μ and Ki-σ1<500 nM; ++++: Both Ki-μ and Ki-σ1<100 nM", "conditions": "transfected HEK-293 membranes (σ1), transfected CHO-K1 cell membranes (μ)", "method": "as §1, §2, §3", "units": {"Ki range for both μ and σ1 (dual-binding class)": "nM"}}
{"smiles": "Oc1cccc(C2CCN(Cc3cn(-c4ccccc4O)nn3)CC2)c1", "note": "[Example 58, 2-(4-((4-(3-hydroxyphenyl)piperidin-1-yl)methyl)-1H-1,2,3-triazol-1-yl)phenol]", "Ki range for both μ and σ1 (dual-binding class)": "< 500"}
{"smiles": "CC(C)S(=O)(=O)Nc1cccc(C2CCN(Cc3cnn(Cc4cccc(F)n4)c3)CC2)c1", "note": "[Example 170, N-(3-(1-((1-((6-fluoropyridin-2-yl)methyl)-1H-pyrazol-4-yl)methyl)piperidin-4-yl)phenyl)propane-2-sulfonamide]", "Ki range for both μ and σ1 (dual-binding class)": "< 100"}
{"smiles": "O=S(=O)(Nc1cccc(C2CCN(Cc3cn(-c4ccccc4F)nn3)CC2)n1)C1CC1", "note": "[Example 228, N-(6-(1-((1-(2-fluorophenyl)-1H-1,2,3-triazol-4-yl)methyl)piperidin-4-yl)pyridin-2-yl)cyclopropanesulfonamid]", "Ki range for both μ and σ1 (dual-binding class)": "< 500"}
{"smiles": "Oc1ccc(F)c(C2CCN(Cc3cn(Cc4ccccn4)nn3)CC2)c1", "note": "[Example 137, 4-fluoro-3-(1-((1-(pyridin-2-ylmethyl)-1H-1,2,3-triazol-4-yl)methyl)piperidin-4-yl)phenol]", "Ki range for both μ and σ1 (dual-binding class)": "< 500"}
{"smiles": "CS(=O)(=O)Nc1cccc(C2CCN(Cc3cn(C4CCc5ccccc54)nn3)CC2)c1", "note": "(stereo not shown) [Example 48, N-(3-(1-((1-(2,3-dihydro-1H-inden-1-yl)-1H-1,2,3-triazol-4-yl)methyl)piperidin-4-yl)phenyl)methanesulfonamide]", "Ki range for both μ and σ1 (dual-binding class)": "< 500"}
{"smiles": "Oc1cccc(C2CCN(Cc3cn(-c4ccc(Cl)cc4Cl)nn3)CC2)c1", "note": "[Example 41, 3-(1-((1-(2,4-dichlorophenyl)-1H-1,2,3-triazol-4-yl)methyl)piperidin-4-yl)phenol]", "Ki range for both μ and σ1 (dual-binding class)": "< 100"}
{"smiles": "CS(=O)(=O)Nc1cc(C2CCN(Cc3cc(-c4ccccc4)no3)CC2)ccc1F", "note": "[Example 180, N-(2-fluoro-5-(1-((3-phenylisoxazol-5-yl)methyl)piperidin-4-yl)phenyl)methanesulfonamide]", "Ki range for both μ and σ1 (dual-binding class)": "< 500"}
{"smiles": "NS(=O)(=O)c1cccc(C2CCN(Cc3cn(Cc4ccccn4)nn3)CC2)c1", "note": "[Example 141, 3-(1-((1-(pyridin-2-ylmethyl)-1H-1,2,3-triazol-4-yl)methyl)piperidin-4-yl)benzenesulfonamide]", "Ki range for both μ and σ1 (dual-binding class)": "≥ 500"}
{"smiles": "Oc1cccc(C2CCN(Cc3cn(Cc4ccc(C(F)(F)F)cn4)nn3)CC2)c1", "note": "[Example 152]", "Ki range for both μ and σ1 (dual-binding class)": "< 100"}
{"smiles": "Oc1cccc(C2CCN(Cc3cnn(Cc4ccc(F)cn4)c3)CC2)c1", "note": "[Example 173, 3-(1-((1-((5-fluoropyridin-2-yl)methyl)-1H-pyrazol-4-yl)methyl)piperidin-4-yl)phenol]", "Ki range for both μ and σ1 (dual-binding class)": "< 500"}
{"smiles": "Oc1cccc(C2CCN(Cc3cn(Cc4ncccc4F)nn3)CC2)c1", "note": "[Example 134, 3-(1-((1-((3-fluoropyridin-2-yl)methyl)-1H-1,2,3-triazol-4-yl)methyl)piperidin-4-yl)phenol]", "Ki range for both μ and σ1 (dual-binding class)": "< 500"}
{"smiles": "Oc1cccc(C2CCN(Cc3cn(Cc4cc(C(F)(F)F)ccn4)nn3)CC2)c1", "note": "[Example 160, 3-(1-((1-((4-(trifluoromethyl)pyridin-2-yl)methyl)-1H-1,2,3-triazol-4-yl)methyl)piperidin-4-yl)phenol]", "Ki range for both μ and σ1 (dual-binding class)": "< 100"}
{"smiles": "CC(C)S(=O)(=O)Nc1cccc(C2CCN(Cc3cn(Cc4ccccn4)nn3)CC2)n1", "note": "[Example 206, N-(6-(1-((1-(pyridin-2-ylmethyl)-1H-1,2,3-triazol-4-yl)methyl)piperidin-4-yl)pyridin-2-yl)propane-2-sulfonamide]", "Ki range for both μ and σ1 (dual-binding class)": "< 500"}
{"smiles": "CS(=O)(=O)Nc1cc(F)cc(C2CCN(Cc3cn(-c4ccccc4)nn3)CC2)c1", "note": "[Example 35, N-(3-fluoro-5-(1-((1-phenyl-1H-1,2,3-triazol-4-yl)methyl)piperidin-4-yl)phenyl)methanesulfonamide]", "Ki range for both μ and σ1 (dual-binding class)": "< 100"}
{"smiles": "Oc1cccc(C2CCN(Cc3cn(-c4ncccc4C(F)(F)F)nn3)CC2)c1", "note": "[Example 218, 3-(1-((1-(3-(trifluoromethyl)pyridin-2-yl)-1H-1,2,3-triazol-4-yl)methyl)piperidin-4-yl)phenol]", "Ki range for both μ and σ1 (dual-binding class)": "< 500"}
{"smiles": "Oc1cccc(C2CCN(Cc3cn(-c4ncccc4Cl)nn3)CC2)c1", "note": "[Example 161, 3-(1-((1-(3-chloropyridin-2-yl)-1H-1,2,3-triazol-4-yl)methyl)piperidin-4-yl)phenol]", "Ki range for both μ and σ1 (dual-binding class)": "< 500"}
{"smiles": "CC(=O)Nc1cccc(C2CCN(Cc3cn(-c4ccccc4)nn3)CC2)c1", "note": "[Example 9, N-(3-(1-((1-phenyl-1H-1,2,3-triazol-4-yl)methyl)piperidin-4-yl)phenyl)acetamide]", "Ki range for both μ and σ1 (dual-binding class)": "< 500"}
{"smiles": "c1ccc(-n2cc(CN3CCC(c4cccc(-c5nnn[nH]5)c4)CC3)nn2)cc1", "note": "[Example 85, 4-(3-(1H-tetrazol-5-yl)phenyl)-1-((1-phenyl-1H-1,2,3-triazol-4-yl)methyl)piperidine]", "Ki range for both μ and σ1 (dual-binding class)": "≥ 500"}
{"smiles": "CC(C)S(=O)(=O)Nc1cccc(C2CCN(Cc3cn(-c4ccccc4)nn3)CC2)c1", "note": "[Example 1, N-(3-(1-((1-phenyl-1H-1,2,3-triazol-4-yl)methyl)piperidin-4-yl)phenyl)propane-2-sulfonamide]", "Ki range for both μ and σ1 (dual-binding class)": "< 100"}
{"smiles": "c1ccc(Cn2cc(CN3CCC(c4cccc(Nc5nccs5)c4)CC3)nn2)nc1", "note": "[Example 229, N-(3-(1-((1-(pyridin-2-ylmethyl)-1H-1,2,3-triazol-4-yl)methyl)piperidin-4-yl)phenyl)thiazol-2-amine]", "Ki range for both μ and σ1 (dual-binding class)": "< 500"}
{"smiles": "Oc1cccc(C2CCN(Cc3cn(Cc4ccc(F)cn4)cn3)CC2)c1", "note": "[Example 215, 3-(1-((1-((5-fluoropyridin-2-yl)methyl)-1H-imidazol-4-yl)methyl)piperidin-4-yl)phenol]", "Ki range for both μ and σ1 (dual-binding class)": "< 500"}
{"smiles": "CC(C)S(=O)(=O)Nc1cccc(C2CCN(Cc3cnn(Cc4ccccn4)c3)CC2)c1", "note": "[Example 167, N-(3-(1-((1-(pyridin-2-ylmethyl)-1H-pyrazol-4-yl)methyl)piperidin-4-yl)phenyl)propane-2-sulfonamide]", "Ki range for both μ and σ1 (dual-binding class)": "< 500"}
